Source: the supplement of paper PMC10307832

Assays:
Assay in all cases: relative viability (nuclei count vs DMSO), 5 days (fraction); higher = more cells survive
Sulindac + Olaparib = compound: CC1=C(CC(=O)O)c2cc(F)ccc2/C1=C\c1ccc([S+](C)[O-])cc1 [Sulindac] + O=C(c1cc(Cc2n[nH]c(=O)c3ccccc23)ccc1F)N1CCN(C(=O)C2CC2)CC1 [Olaparib] (partner 8 µM)
Outline: (§1)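 Lung cancer cell lines, seeded in 1536-well plates, were treated the following day by pin tool with a single drug or with five library-drug doses (not always all listed) in √10 steps on top of a fixed anchor-drug dose. Cells were fixed and nuclei stained in one step after 5 days, and nuclei were counted. Relative viability is the nuclei count for treated wells divided by that for vehicle wells, reported as medians of duplicate plates.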

[1] = compound: CN[C@@H]1C[C@H]2O[C@@](C)([C@@H]1OC)n1c3ccccc3c3c4c(c5c6ccccc6n2c5c31)C(=O)NC4 [Staurosporine] + CS(=O)(=O)N1CCN(Cc2cc3nc(-c4cccc5[nH]ncc45)nc(N4CCOCC4)c3s2)CC1 [Pictilisib] (partner 1 µM)
Outline: as §1

[2] = compound: CN[C@@H]1C[C@H]2O[C@@](C)([C@@H]1OC)n1c3ccccc3c3c4c(c5c6ccccc6n2c5c31)C(=O)NC4 [Staurosporine] + Nc1nc2[nH]cc(CCc3ccc(C(=O)N[C@@H](CCC(=O)O)C(=O)O)cc3)c2c(=O)[nH]1 [Pemetrexed] (partner 0.2 µM)
Outline: as §1

[3] = compound: O=c1[nH]cc(F)c(=O)[nH]1 [5-Fluorouracil] + CC(=O)Nc1cccc(-n2c(=O)n(C3CC3)c(=O)c3c(Nc4ccc(I)cc4F)n(C)c(=O)c(C)c32)c1 [Trametinib] (partner 0.02 µM)
Outline: as §1

| Cell Line | relative viability (Sulindac + Olaparib; first compound 0.08 µM) | relative viability (Sulindac + Olaparib; first compound 0.253 µM) | relative viability (Sulindac + Olaparib; first compound 0.8 µM) | relative viability (Sulindac + Olaparib; first compound 2.53 µM) | relative viability (Sulindac + Olaparib; first compound 8 µM) | relative viability ([1]; first compound 0.005 µM) | relative viability ([1]; first compound 0.01581 µM) | relative viability ([1]; first compound 0.05 µM) | relative viability ([1]; first compound 0.1581 µM) | relative viability ([1]; first compound 0.5 µM) | relative viability ([2]; first compound 0.005 µM) | relative viability ([2]; first compound 0.01581 µM) | relative viability ([2]; first compound 0.05 µM) | relative viability ([2]; first compound 0.1581 µM) | relative viability ([2]; first compound 0.5 µM) | relative viability ([3]; first compound 0.02 µM) | relative viability ([3]; first compound 0.2 µM) | relative viability ([3]; first compound 0.6325 µM) | relative viability ([3]; first compound 2 µM) |
| --- | --- | --- | --- | --- | --- | --- | --- | --- | --- | --- | --- | --- | --- | --- | --- | --- | --- | --- | --- |
| NCI-H2085 | 0.742 | 0.79 | 0.711 | 0.792 | 0.837 | 0.369 | 0.261 | 0.282 | 0.351 | 0.226 | 0.635 | 0.307 | 0.429 | 0.206 | 0.242 | 0.412 | 0.607 | 0.563 | 0.563 |
| NCI-H650 | 0.442 | 0.431 | 0.341 | 0.425 | 0.472 | 0.416 | 0.297 | 0.344 | 0.24 | 0.233 | 0.64 | 0.257 | 0.235 | 0.23 | 0.228 | 0.914 | 0.701 | 0.407 | 0.341 |
| SK-MES-1 | 0.733 | 0.825 | 0.56 | 0.712 | 0.772 | 0.328 | 0.265 | 0.173 | 0.182 | 0.19 | 0.543 | 0.277 | – | 0.145 | 0.141 | 0.496 | 0.552 | 0.381 | 0.352 |
| NCI-H1793 | 0.963 | 0.934 | – | 0.973 | 1.08 | 0.534 | 0.248 | 0.277 | 0.191 | – | 0.865 | – | 0.371 | 0.154 | 0.125 | 0.398 | 0.49 | 0.373 | 0.38 |
| NCI-H3122 | 0.739 | 0.648 | 0.579 | 0.655 | 0.604 | 0.668 | 0.306 | 0.566 | 0.441 | 0.118 | 0.183 | – | 0.177 | 0.167 | 0.105 | 0.232 | 0.296 | 0.187 | 0.176 |
| LCLC-103H | 0.856 | 0.757 | 0.695 | 0.798 | 0.82 | 0.495 | 0.211 | 0.274 | 0.193 | 0.158 | 0.405 | 0.238 | 0.336 | 0.247 | 0.213 | 0.733 | 0.671 | 0.598 | 0.566 |
| NCI-H596 | 0.567 | 0.697 | – | 0.716 | 0.639 | 0.407 | 0.222 | 0.198 | 0.129 | 0.105 | 0.485 | 0.265 | 0.297 | 0.27 | 0.148 | 0.845 | 0.649 | 0.632 | 0.479 |
| NCI-H1792 | 0.429 | 0.449 | – | 0.453 | 0.725 | 0.25 | 0.0859 | 0.0905 | 0.106 | – | 0.28 | 0.0706 | 0.0856 | 0.056 | 0.0352 | 0.367 | 0.278 | 0.172 | 0.167 |
| NCI-H358 | 0.809 | 0.667 | 0.526 | 0.573 | 0.62 | 0.317 | 0.261 | 0.162 | 0.141 | 0.139 | 0.165 | 0.158 | 0.102 | 0.102 | 0.0764 | 0.17 | 0.124 | 0.123 | 0.137 |
| NCI-H1755 | 0.888 | 0.952 | 0.829 | 0.85 | 0.991 | 0.135 | 0.139 | 0.155 | 0.138 | 0.154 | 0.348 | 0.321 | 0.236 | 0.224 | 0.223 | 0.796 | 0.688 | 0.417 | 0.37 |
| EPLC-272H | 0.828 | 0.852 | 0.72 | 0.639 | 0.727 | 0.333 | 0.141 | 0.176 | 0.1 | 0.0694 | 0.213 | 0.13 | 0.146 | 0.0971 | 0.0691 | 0.263 | 0.262 | 0.242 | 0.198 |
| NCI-H2228 | 0.941 | 0.804 | 0.499 | 0.637 | 0.516 | 0.187 | 0.139 | 0.325 | 0.116 | 0.0619 | 0.288 | 0.185 | 0.192 | – | 0.116 | 0.628 | 0.685 | 0.441 | 0.326 |
